According to article PMC11167047 (Cell Death Discovery, 2024):

Key:
Assay in all cases: kinome screen (33PanQinase)
Type in all cases: biochemical
[1] = biological target: T1, FGFR1 (Homo sapiens, UniProt P11362)
T1 construct: purchased Reaction Biology Europe GmbH (formerly ProQinase)
Protocol: (§1) The Kinome Screening was performed by Reaction Biology Europe GmbH (http://reactionbiology.com; Freiburg i. Br., Germany).

[2] = biological target: T2, PKCμ (Homo sapiens, UniProt Q15139)
T2 construct: purchased Reaction Biology Europe GmbH (formerly ProQinase)
T2 sequence (Q15139 1-912): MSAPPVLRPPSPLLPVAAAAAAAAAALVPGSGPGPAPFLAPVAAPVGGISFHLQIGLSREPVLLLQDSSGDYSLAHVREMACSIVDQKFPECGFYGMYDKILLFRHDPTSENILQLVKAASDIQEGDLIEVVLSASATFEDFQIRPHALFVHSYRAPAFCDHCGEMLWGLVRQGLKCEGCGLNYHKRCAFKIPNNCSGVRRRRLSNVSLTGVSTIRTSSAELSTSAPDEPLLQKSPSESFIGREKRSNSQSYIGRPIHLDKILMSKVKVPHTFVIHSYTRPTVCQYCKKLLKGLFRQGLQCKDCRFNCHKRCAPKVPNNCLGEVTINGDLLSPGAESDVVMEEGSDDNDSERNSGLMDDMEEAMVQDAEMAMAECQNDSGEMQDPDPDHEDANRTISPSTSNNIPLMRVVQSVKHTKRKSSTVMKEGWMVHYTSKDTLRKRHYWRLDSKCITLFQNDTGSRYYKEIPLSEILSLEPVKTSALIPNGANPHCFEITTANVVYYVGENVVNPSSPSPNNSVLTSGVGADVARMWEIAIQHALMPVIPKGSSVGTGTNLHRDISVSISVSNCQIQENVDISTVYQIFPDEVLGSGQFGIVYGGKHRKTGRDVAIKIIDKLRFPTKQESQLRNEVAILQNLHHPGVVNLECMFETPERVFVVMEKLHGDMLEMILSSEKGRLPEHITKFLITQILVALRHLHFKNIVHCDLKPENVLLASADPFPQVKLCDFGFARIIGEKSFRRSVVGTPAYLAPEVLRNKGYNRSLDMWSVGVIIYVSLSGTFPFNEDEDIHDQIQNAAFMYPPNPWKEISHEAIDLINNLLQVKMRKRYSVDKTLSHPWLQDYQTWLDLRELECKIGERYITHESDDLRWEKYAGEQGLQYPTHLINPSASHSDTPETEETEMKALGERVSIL
Protocol: as §1

[3] = biological target: T3, AKT2 (Homo sapiens, UniProt P31751)
T3 construct: purchased Reaction Biology Europe GmbH (formerly ProQinase)
Protocol: as §1

[4] = biological target: T4, CK1ε (Homo sapiens, UniProt P49674)
T4 construct: purchased Reaction Biology Europe GmbH (formerly ProQinase)
Protocol: as §1

[5] = biological target: T5, PLK1 (Homo sapiens, UniProt P53350)
T5 construct: purchased Reaction Biology Europe GmbH (formerly ProQinase)
Protocol: as §1

[6] = biological target: T6, TRKA (Homo sapiens, UniProt P04629)
T6 construct: purchased Reaction Biology Europe GmbH (formerly ProQinase)
Protocol: as §1

[7] = biological target: T7, CAMKK2 (Homo sapiens, UniProt Q96RR4)
T7 construct: purchased Reaction Biology Europe GmbH (formerly ProQinase)
Protocol: as §1

[8] = biological target: T8, MTOR (Homo sapiens, UniProt P42345)
T8 construct: purchased Reaction Biology Europe GmbH (formerly ProQinase)
Protocol: as §1

[9] = biological target: T9, CAMK4 (Homo sapiens, UniProt Q16566)
T9 construct: purchased Reaction Biology Europe GmbH (formerly ProQinase)
T9 sequence (Q16566 1-473): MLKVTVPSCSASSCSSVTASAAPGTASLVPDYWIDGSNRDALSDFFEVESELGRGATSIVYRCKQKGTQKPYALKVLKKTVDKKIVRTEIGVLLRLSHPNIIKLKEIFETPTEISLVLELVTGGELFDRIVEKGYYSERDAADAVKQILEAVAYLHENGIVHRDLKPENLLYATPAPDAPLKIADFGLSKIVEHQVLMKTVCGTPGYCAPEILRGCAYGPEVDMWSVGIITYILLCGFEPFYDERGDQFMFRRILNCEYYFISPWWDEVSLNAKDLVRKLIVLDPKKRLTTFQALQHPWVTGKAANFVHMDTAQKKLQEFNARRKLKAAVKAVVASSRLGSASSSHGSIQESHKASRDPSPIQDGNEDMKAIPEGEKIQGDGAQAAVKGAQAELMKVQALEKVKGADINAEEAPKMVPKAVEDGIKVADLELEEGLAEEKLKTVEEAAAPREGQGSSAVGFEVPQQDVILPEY
Protocol: as §1

T7 sequence (Q96RR4 whole entry): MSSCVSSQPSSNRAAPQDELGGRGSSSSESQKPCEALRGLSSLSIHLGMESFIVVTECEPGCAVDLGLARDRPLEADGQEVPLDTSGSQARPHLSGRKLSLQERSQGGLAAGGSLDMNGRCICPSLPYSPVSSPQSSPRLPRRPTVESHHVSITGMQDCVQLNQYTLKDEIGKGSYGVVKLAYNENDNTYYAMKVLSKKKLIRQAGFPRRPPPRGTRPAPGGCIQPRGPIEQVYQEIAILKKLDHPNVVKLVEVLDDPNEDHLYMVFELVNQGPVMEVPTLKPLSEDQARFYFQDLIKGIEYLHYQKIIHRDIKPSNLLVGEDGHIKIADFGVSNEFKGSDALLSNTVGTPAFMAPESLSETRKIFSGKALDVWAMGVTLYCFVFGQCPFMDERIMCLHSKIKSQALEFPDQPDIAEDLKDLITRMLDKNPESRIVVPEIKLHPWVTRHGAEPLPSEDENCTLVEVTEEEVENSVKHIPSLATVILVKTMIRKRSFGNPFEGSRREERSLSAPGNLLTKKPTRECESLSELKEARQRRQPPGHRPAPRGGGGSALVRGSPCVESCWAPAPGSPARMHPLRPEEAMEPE
T5 sequence (P53350 whole entry): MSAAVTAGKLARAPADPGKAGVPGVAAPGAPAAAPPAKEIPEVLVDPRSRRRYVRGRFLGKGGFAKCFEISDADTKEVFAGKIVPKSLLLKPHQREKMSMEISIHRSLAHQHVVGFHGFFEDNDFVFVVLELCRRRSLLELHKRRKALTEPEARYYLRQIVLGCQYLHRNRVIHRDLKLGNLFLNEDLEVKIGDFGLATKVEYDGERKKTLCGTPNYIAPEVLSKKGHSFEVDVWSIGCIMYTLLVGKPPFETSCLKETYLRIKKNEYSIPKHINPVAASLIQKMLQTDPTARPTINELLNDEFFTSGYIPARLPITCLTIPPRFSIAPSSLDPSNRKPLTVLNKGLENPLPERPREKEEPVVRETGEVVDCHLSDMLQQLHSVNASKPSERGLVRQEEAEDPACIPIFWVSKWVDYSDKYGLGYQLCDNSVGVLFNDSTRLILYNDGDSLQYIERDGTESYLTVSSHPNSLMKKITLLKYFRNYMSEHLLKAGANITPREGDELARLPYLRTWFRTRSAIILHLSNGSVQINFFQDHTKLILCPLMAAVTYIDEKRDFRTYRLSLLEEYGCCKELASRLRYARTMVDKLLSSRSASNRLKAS
T1 sequence (P11362 22-822): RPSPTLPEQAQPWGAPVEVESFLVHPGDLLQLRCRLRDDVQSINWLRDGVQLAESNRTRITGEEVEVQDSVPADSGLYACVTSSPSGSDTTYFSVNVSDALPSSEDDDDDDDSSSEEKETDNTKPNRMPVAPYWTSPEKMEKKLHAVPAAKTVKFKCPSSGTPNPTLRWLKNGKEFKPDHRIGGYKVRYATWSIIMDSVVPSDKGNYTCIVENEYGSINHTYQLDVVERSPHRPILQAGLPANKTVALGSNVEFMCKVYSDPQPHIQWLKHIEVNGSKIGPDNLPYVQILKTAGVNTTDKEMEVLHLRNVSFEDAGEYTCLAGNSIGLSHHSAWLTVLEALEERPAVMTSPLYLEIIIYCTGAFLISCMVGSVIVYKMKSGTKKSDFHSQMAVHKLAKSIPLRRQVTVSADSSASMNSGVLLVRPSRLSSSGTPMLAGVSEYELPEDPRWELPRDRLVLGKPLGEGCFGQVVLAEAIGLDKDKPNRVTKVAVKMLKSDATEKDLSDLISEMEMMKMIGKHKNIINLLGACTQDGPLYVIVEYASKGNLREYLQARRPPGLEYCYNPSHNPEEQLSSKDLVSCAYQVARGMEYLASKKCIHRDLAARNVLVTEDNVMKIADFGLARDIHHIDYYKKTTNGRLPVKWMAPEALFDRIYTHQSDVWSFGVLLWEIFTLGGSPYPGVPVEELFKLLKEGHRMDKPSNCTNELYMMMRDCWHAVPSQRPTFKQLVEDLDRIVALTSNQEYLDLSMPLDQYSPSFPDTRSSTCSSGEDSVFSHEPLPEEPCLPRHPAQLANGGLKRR
T4 sequence (P49674 whole entry): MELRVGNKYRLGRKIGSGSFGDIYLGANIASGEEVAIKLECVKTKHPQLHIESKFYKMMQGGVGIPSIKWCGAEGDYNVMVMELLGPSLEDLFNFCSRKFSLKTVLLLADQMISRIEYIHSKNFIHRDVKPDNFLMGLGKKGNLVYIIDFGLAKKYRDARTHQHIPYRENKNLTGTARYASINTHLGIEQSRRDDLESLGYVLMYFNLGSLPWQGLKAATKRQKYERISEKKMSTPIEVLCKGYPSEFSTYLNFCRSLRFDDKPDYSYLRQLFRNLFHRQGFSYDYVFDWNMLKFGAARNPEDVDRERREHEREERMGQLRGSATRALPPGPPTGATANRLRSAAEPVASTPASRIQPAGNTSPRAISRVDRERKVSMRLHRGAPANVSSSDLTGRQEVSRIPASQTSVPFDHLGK
T3 sequence (P31751 whole entry): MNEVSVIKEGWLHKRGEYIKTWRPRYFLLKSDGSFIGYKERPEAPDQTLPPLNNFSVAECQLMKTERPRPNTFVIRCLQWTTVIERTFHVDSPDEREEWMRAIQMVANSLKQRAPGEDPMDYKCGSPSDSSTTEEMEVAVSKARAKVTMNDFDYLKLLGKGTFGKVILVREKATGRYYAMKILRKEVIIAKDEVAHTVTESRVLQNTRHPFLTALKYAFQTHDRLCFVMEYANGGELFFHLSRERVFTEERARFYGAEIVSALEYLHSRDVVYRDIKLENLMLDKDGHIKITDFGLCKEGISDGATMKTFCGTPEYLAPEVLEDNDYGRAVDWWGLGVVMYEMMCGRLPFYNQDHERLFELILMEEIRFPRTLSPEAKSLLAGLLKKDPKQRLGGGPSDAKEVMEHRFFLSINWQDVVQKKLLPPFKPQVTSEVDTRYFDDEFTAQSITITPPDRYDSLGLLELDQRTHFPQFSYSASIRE
T6 sequence (P04629 33-796): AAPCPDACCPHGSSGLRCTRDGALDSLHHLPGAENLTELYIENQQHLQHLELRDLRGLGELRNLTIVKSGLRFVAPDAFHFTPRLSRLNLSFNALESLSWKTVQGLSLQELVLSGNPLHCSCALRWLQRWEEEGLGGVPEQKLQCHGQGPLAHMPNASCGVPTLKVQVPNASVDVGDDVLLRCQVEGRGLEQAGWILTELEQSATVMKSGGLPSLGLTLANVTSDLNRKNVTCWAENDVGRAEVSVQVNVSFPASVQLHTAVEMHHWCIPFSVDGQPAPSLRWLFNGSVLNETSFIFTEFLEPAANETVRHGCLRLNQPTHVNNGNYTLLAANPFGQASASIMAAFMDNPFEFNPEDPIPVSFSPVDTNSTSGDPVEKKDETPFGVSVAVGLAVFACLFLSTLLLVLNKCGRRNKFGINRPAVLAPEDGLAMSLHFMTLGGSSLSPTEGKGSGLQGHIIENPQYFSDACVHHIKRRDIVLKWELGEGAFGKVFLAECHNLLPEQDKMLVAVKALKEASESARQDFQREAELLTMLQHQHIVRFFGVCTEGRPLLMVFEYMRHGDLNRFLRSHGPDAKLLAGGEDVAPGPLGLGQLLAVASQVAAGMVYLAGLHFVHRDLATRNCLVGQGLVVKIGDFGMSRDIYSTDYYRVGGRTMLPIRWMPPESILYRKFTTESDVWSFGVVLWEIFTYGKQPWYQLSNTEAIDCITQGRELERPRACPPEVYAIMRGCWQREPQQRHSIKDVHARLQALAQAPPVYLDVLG

Compound | residual kinase activity ([1]; 0.3 µM) | residual kinase activity ([2]; 0.3 µM) | residual kinase activity ([3]; 0.3 µM) | residual kinase activity ([4]; 0.3 µM) | residual kinase activity ([5]; 0.3 µM) | residual kinase activity ([6]; 0.3 µM) | residual kinase activity ([7]; 0.3 µM) | residual kinase activity ([8]; 0.3 µM) | residual kinase activity ([9]; 0.3 µM) | further results
COc1ccnc2[nH]cc(-c3cc(N)nc(N)c3)c12 [meriolin 16] | 91 % of control | 24 % of control | 79 % of control | 41 % of control | 90 % of control | 40 % of control | 55 % of control | 105 % of control | 92 % of control | residual kinase activity ([1]; 0.03 µM): 103 % of control; residual kinase activity ([2]; 0.03 µM): 77 % of control; residual kinase activity ([3]; 0.03 µM): 98 % of control; residual kinase activity ([4]; 0.03 µM): 112 % of control; residual kinase activity ([5]; 0.03 µM): 95 % of control; residual kinase activity ([6]; 0.03 µM): 83 % of control; residual kinase activity ([7]; 0.03 µM): 92 % of control; residual kinase activity ([8]; 0.03 µM): 91 % of control; residual kinase activity ([9]; 0.03 µM): 96 % of control
c1ccc(CNc2cc(-c3c[nH]c4ncccc34)ccn2)cc1 [meriolin 36] | 56 % of control | 63 % of control | 102 % of control | 86 % of control | 100 % of control | 9 % of control | 9 % of control | 78 % of control | 92 % of control | residual kinase activity ([1]; 3 µM): 16 % of control; residual kinase activity ([2]; 3 µM): 23 % of control; residual kinase activity ([3]; 3 µM): 75 % of control; residual kinase activity ([4]; 3 µM): 23 % of control; residual kinase activity ([5]; 3 µM): 66 % of control; residual kinase activity ([6]; 3 µM): 1 % of control; residual kinase activity ([7]; 3 µM): 1 % of control; residual kinase activity ([8]; 3 µM): 24 % of control; residual kinase activity ([9]; 3 µM): 73 % of control
